Results on three compounds are retold here after ChEMBL document CHEMBL1649440, “Impact of sarA on antibiotic susceptibility of Staphylococcus aureus in a catheter-associated in vitro model of biofilm formation” (2009).

Values after ≈ are worked out from the molar mass of the structure shown.

The subject of experiment [1] is Staphylococcus aureus. Kind of experiment: Antimicrobial activity against Staphylococcus aureus isolate UAMS-1 by Etest method. The format is functional.
Experiment [2] relates to Staphylococcus aureus. Kind of experiment: Antimicrobial activity against Staphylococcus aureus isolate UAMS-929 harboring sarA gene mutant by Etest method. It is filed as functional.

As to `CN[C@H](CC(C)C)C(=O)N[C@H]1C(=O)N[C@@H](CC(N)=O)C(=O)N[C@H]2C(=O)N[C@H]3C(=O)N[C@H](C(=O)N[C@H](C(=O)O)c4cc(O)cc(O)c4-c4cc3ccc4O)[C@H](O)c3ccc(c(Cl)c3)Oc3cc2cc(c3O[C@@H]2O[C@H](CO)[C@@H](O)[C@H](O)[C@H]2O[C@H]2C[C@](C)(N)[C@H](O)[C@H](C)O2)Oc2ccc(cc2Cl)[C@H]1O` [VANCOMYCIN], the MIC in experiment [1] and in experiment [2] was 1.5 µg/mL (≈ 1.04 µM) throughout.
For the compound `CCCCCCCCCC(=O)N[C@@H](Cc1c[nH]c2ccccc12)C(=O)N[C@H](CC(N)=O)C(=O)N[C@@H](CC(=O)O)C(=O)N[C@@H]1C(=O)NCC(=O)N[C@@H](CCCN)C(=O)N[C@@H](CC(=O)O)C(=O)N[C@H](C)C(=O)N[C@@H](CC(=O)O)C(=O)NCC(=O)N[C@H](CO)C(=O)N[C@@H]([C@H](C)CC(=O)O)C(=O)N[C@@H](CC(=O)c2ccccc2N)C(=O)O[C@@H]1C`, the MIC in experiment [1] and in experiment [2] was 0.75 µg/mL (≈ 0.463 µM) throughout.
Regarding `CC(=O)NC[C@H]1CN(c2ccc(N3CCOCC3)c(F)c2)C(=O)O1` [LINEZOLID], the MIC in experiment [1] and in experiment [2] was 1 µg/mL (≈ 2.96 µM) each time.
